Experimental data as given in publication PMC12809504, “Polo-like kinase 1–inhibitor co-complex structures via the surface-entropy reduction approach and a DARPin-assisted approach” (Acta Crystallographica Section D: Structural Biology, 2025).

How the values were obtained:
[1] = target: T1, Polo-like kinase 1 (PLK1) (Homo sapiens, UniProt P53350); assay: TR-FRET kinase-activity assay, […] ATP; type: biochemical; parameters: kinase domain, residues 33–345, PLK1^WT
[2] = target: T1, Polo-like kinase 1 (PLK1); assay: (soak, […] Å); IC50 by TR-FRET kinase assay at […] ATP; type: biochemical; parameters: kinase domain, residues 33–345 (Ala33–Lys345), PLK1^WT; with DARPin 3H10 (crystal structure only)

T1 sequence (P53350 33-345): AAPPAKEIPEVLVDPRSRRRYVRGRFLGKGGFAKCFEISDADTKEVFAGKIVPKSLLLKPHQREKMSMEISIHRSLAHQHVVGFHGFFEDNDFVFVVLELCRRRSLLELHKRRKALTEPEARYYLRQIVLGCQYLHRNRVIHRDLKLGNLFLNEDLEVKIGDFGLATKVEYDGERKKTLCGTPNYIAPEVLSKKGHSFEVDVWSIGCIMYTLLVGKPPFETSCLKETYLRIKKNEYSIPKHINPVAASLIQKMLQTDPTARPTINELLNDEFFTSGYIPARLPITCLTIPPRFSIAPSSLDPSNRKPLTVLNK

IC50 [1] | SMILES | IC50 [2]
178 ± 52.6 nM | CCn1c(=C(C#N)C(=O)NCC(F)(F)F)sc(=CNc2cccc(CCN3CCCC3)c2)c1=O [ZK-Thiazolidinone] | 
 | CCn1c(=O)c(=CNc2ccnc(N(C)C3CCN(C)CC3)c2)s/c1=C(/C#N)C(=O)NCC(F)(F)F [compound 1, (2Z)-2-cyano-2-{3-ethyl-5-[({2-[methyl(1-methylpiperidin-4-yl)amino]pyridin-4-yl}amino)methylidene]-4-oxo-1,3-thiazolidin-2-ylidene}-N-(2,2,2-trifluoroethyl)acetamide] | 3.6 ± 2.3 nM
